Consider 1 compound from patent US11529318B2, “Devices and methods for local delivery of tacrolimus” (UNIVERSITY OF PITTSBURGH—OF THE COMMONWEALTH SYSTEM OF …, priority 2017, dated 2022).

The nature of one data set: in vivo. On the set-up: species or system Sprague-Dawley rats. The conditions noted are these: Sprague-Dawley, rat, 2.2 mg/kg/day, tacrolimus concentration. Here is the method:
Optic nerve ischemia and PEUU-Tac matrix application. Animals were anesthetized by intraperitoneal injection of 45:10 mg/kg ketamine/xylazine cocktail. Once anaesthetized, the optic nerve was exposed by making a small incision and then creating a nearly bloodless plane through the conjunctiva by blunt dissection with #5 forceps. The surrounding muscle and connective tissue around the optic nerve were then gently separated until the optic nerve was exposed. Using a Yasagril aneurysm clip, the right optic nerve was clamped ˜2 mm behind the globe for 10 seconds (Sarikcioglu, Demir et al. 2007). After removing the clip, ophthalmic artery integrity was confirmed by visualization. For some animals, the optic nerve sheath was fenestrated at the injury site by making an 1-2 mm incision. For animals receiving PEUU-Tac, a 1×5 mm section cut from a 10 mg PEUU-Tac matrix was sutured around the injury site and then secured by suturing to the outer sheath. After each optic nerve procedure, the conjunctiva was sutured and antibiotic ointment (Gentamicin, Bausch & Lomb, Tampa, Fla.) was applied to the eye. In total, twenty-eight animals received acute optic nerve ischemia to the right optic nerve with or without a PEUU-Tac wrap. The experimental groups were as follows: • (1) Five animals received a 1 mm×5 mm section of a 10 mg PEUU-Tac sheet sutured around the nerve. • (2) Five animals received a 1 mm×5 mm section of a 10 mg PEUU-Tac matrix implanted subcutaneously in the lower right quadrant of the abdomen. • (3) Five animals received daily intraperitoneal injections of tacrolimus (2.2 mg/kg/day) for 14 days with the first injection administered immediately after ischemic injury. • (4) Five animals were used as a sham control.
Blood and tissue collection. Twenty-four hours after injury, blood samples were drawn from all four groups via the tail vein. Four of the eight animals treated with PEUU-Tac were sacrificed at 24 hours and sixteen animals were sacrificed at 14 days. Blood, both retinas and both optic nerves were collected from all animals.
Tacrolimus tissue extraction and reconstitution in blood. Tissue (retina and optic nerve) samples were weighted and homogenized with organic solvent (methanol, 100%) using Mini-BeadBeater-1 sonicator for cell disruption and left over night to assure complete tacrolimus extraction. The homogenate was centrifuged at 2100±100 rpm for 10 min. The methanol was transferred to a microcentrifuge tube and evaporated using a sample concentrator. The drug residue was reconstituted with 1 mL of blood. Tacrolimus in the blood was analyzed as described below and tissue drug concentration was expressed in ng/g of tissue weight.
Quantification of tacrolimus in blood by HPLC-tandem mass spectrometry. […]

Data set [1] is described as follows: Tacrolimus concentration in infra orbital nerves, muscle and PEUU wraps (Example 3). The conditions noted are these: Lewis, rat, daily intraperitoneal injections 1 mg/kg for 14 days. The class given is in vivo, Lewis rats. Here is the method: Animals and Surgeries. All animals received care in compliance with the Institutional Animal Care and Use Committee and protocol approval from the University of Pittsburgh and followed guidelines from the Guide for the Care and Use of Laboratory Animals published by the U.S. National Institutes of Health. 10 Lewis rats (RT1) per group (treatment group, non-treatment group), aged 8-10 weeks, were anesthetized with 50 mg/kg intraperitoneal pentobarbital sodium and supplemented as necessary with 10 mg/kg injections. Sterile technique were utilized for all surgeries and a heating pad was used to maintain core animal temperature at 37° C.
The surgical procedure is described in depth in Xiao et al., 2016 and is briefly defined here. Proximal to the mystacial pad, an incision was made on the left hemiface distal to where the infraorbital nerve exits from the infraorbital foramen. Tissue was discretely dissected in order to expose the infraorbital branch of the trigeminal nerve and was transected using microscissors. […]
Quantification of Tacrolimus concentration in infra orbital nerves, muscle, and PEUU wraps. […] Drug concentration was measured by L-CMS/MS and the results were expressed as ng/g of tissue or wrap weight.
Quantification of Tacrolimus by LC-Tandem Mass Spectrometry (LC-MS/MS). […]

Data set [2] in a line: Tacrolimus concentration in whole blood (Example 3). The note with it: Lewis, rat, intraperitoneal, 1 mg/kg, read-out: trough tacrolimus blood levels. The class given is in vivo, Lewis rats. Here is the method:
Quantification of Tacrolimus by LC-Tandem Mass Spectrometry (LC-MS/MS). Fifty microliters of blood containing an unknown concentration of Tacrolimus was added to a conical centrifugation tube, followed by 200 μL of zinc sulfate heptahydrate (ZnSO4.7H2O) to precipitate plasma proteins. Five hundred microliters of an acetonitrile based solution containing a deuterated internal standard (ascomycin) at a concentration of 15 ng/ml was then added, and the mixture was vortexed at 3000 rpm for 2 minutes and centrifugated at 13,000 rpm for 3 minutes and the supernatants collected in LCMS vials for analysis.
Analysis was performed using a fully validated, reverse phased method for the detection of TAC in blood on a Waters micromass Quattro micro API mass spectrometer that is operated in positive electrospray ionization mode, utilizing multiple reaction monitoring, with an injection volume of 20 μL. The Waters 2795 Alliance Separations Module was equipped with a nova-pack® C18 column, 2.1×10 mm cartridge (Waters #186003523) heated to 55° C. Analytes were effectively separated using a gradient elution consisting of an aqueous mobile phase (95% H2O/5% MeOH) and an organic mobile phase (100% MeOH), at a flow rate of 0.6 mL per minute. Mobile phases also contained 0.1% formic acid (CH2O2) and 2 mM ammonium acetate.

Structures are written as SMILES.

Take `C=CC[C@@H]1/C=C(\C)C[C@H](C)C[C@H](OC)[C@H]2O[C@@](O)(C(=O)C(=O)N3CCCC[C@H]3C(=O)O[C@H](/C(C)=C/[C@@H]3CC[C@@H](O)[C@H](OC)C3)[C@H](C)[C@@H](O)CC1=O)[C@H](C)C[C@@H]2OC` [tacrolimus]: the concentration at 14 days in “in vivo” (left optic nerve) was 1700 ng/g; in “in vivo” (left retina), 618 ng/g; in “in vivo” (right optic nerve), 2200 ng/g; in the data set “in vivo” (right retina), 530 ng/g; in data set [1] (infra orbital nerves (IONs), read-out: tacrolimus concentration in IONs), roughly 196 ng/g; in data set [1] (muscle, read-out: tacrolimus concentration in muscle), roughly 172 ng/g. The concentration at 14 days in data set [2] (14 days, systemically treated animals) was found to be 14 ± 10.6 ng/mL. In addition, in data set [2] (24 hours post systemic injection), the concentration at 24 h was 18.8 ± 14.8 ng/mL.
